According to the supplement of paper PMC10307832:

Experiments:
Assay in all cases: relative viability (nuclei count vs DMSO), 5 days (fraction); higher = more cells survive
Ispinesib + Alpelisib = compound: Cc1ccc(C(=O)N(CCCN)[C@@H](c2nc3cc(Cl)ccc3c(=O)n2Cc2ccccc2)C(C)C)cc1 [Ispinesib] + Cc1nc(NC(=O)N2CCC[C@H]2C(N)=O)sc1-c1ccnc(C(C)(C)C(F)(F)F)c1 [Alpelisib] (partner 2 µM)
Summary of the method: (§1)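 For relative viability, nuclei counts in treated wells were divided by those in vehicle wells. Lung cancer cell lines had been pin-tool dosed in 1536-well plates the day after seeding and cultured for 5 days, then fixed and stained in one step (final 0.05% Triton X-100, 1% formaldehyde, 1 ug/ml Hoechst) and imaged at 4×. Doses were one drug alone or a fixed anchor-drug dose plus five library-drug doses (not always all listed) in √10 steps, and values are duplicate-plate medians.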

Ispinesib + Trametinib = compound: Cc1ccc(C(=O)N(CCCN)[C@@H](c2nc3cc(Cl)ccc3c(=O)n2Cc2ccccc2)C(C)C)cc1 [Ispinesib] + CC(=O)Nc1cccc(-n2c(=O)n(C3CC3)c(=O)c3c(Nc4ccc(I)cc4F)n(C)c(=O)c(C)c32)c1 [Trametinib] (partner 0.02 µM)
Summary of the method: as §1

Ispinesib + Foretinib = compound: Cc1ccc(C(=O)N(CCCN)[C@@H](c2nc3cc(Cl)ccc3c(=O)n2Cc2ccccc2)C(C)C)cc1 [Ispinesib] + COc1cc2c(Oc3ccc(NC(=O)C4(C(=O)Nc5ccc(F)cc5)CC4)cc3F)ccnc2cc1OCCCN1CCOCC1 [Foretinib] (partner 0.25 µM)
Summary of the method: as §1

Linsitinib + Lapatinib = compound: C[C@]1(O)C[C@@H](c2nc(-c3ccc4ccc(-c5ccccc5)nc4c3)c3c(N)nccn32)C1 [Linsitinib] + CS(=O)(=O)CCNCc1ccc(-c2ccc3ncnc(Nc4ccc(OCc5cccc(F)c5)c(Cl)c4)c3c2)o1 [Lapatinib] (partner 2 µM)
Summary of the method: as §1

| Cell Line | relative viability (Ispinesib + Alpelisib; first compound 0.001 µM) | relative viability (Ispinesib + Alpelisib; first compound 0.003162 µM) | relative viability (Ispinesib + Alpelisib; first compound 0.01 µM) | relative viability (Ispinesib + Alpelisib; first compound 0.03162 µM) | relative viability (Ispinesib + Alpelisib; first compound 0.1 µM) | relative viability (Ispinesib + Trametinib; first compound 0.001 µM) | relative viability (Ispinesib + Trametinib; first compound 0.003162 µM) | relative viability (Ispinesib + Trametinib; first compound 0.01 µM) | relative viability (Ispinesib + Trametinib; first compound 0.03162 µM) | relative viability (Ispinesib + Trametinib; first compound 0.1 µM) | relative viability (Ispinesib + Foretinib; first compound 0.001 µM) | relative viability (Ispinesib + Foretinib; first compound 0.003162 µM) | relative viability (Ispinesib + Foretinib; first compound 0.01 µM) | relative viability (Ispinesib + Foretinib; first compound 0.03162 µM) | relative viability (Ispinesib + Foretinib; first compound 0.1 µM) | relative viability (Linsitinib + Lapatinib; first compound 0.01 µM) | relative viability (Linsitinib + Lapatinib; first compound 0.03162 µM) | relative viability (Linsitinib + Lapatinib; first compound 0.1 µM) | relative viability (Linsitinib + Lapatinib; first compound 0.3162 µM) | relative viability (Linsitinib + Lapatinib; first compound 1 µM) |
| --- | --- | --- | --- | --- | --- | --- | --- | --- | --- | --- | --- | --- | --- | --- | --- | --- | --- | --- | --- | --- |
| 201T | 1.07 | 1.01 | 1.06 | 0.996 | 0.955 | 0.743 | 0.75 | 0.729 | 0.692 | 0.678 | 1.26 | 1.24 | 1.08 | 0.962 | 0.214 | 0.967 | 1.06 | 1.07 | 0.789 | 0.978 |
| A549 | 0.655 | 0.761 | 1.08 | 0.0901 | 0.0827 | – | – | – | – | – | 1.13 | 1.19 | 1.2 | 0.757 | 0.0545 | 0.981 | 1.02 | 0.816 | 0.783 | 0.443 |
| A-427 | 1.1 | 1.21 | 0.993 | 1 | 1.04 | 0.721 | 0.811 | 0.745 | 0.463 | 0.226 | 1.06 | 1.22 | 1.16 | 1.07 | 0.762 | 1.02 | 0.723 | 1.06 | – | 1.08 |
| ABC-1 | 1.36 | 0.881 | 1.25 | 0.343 | 0.315 | – | – | – | – | – | 1.37 | 1.35 | 1.11 | 0.507 | 0.382 | 1.13 | 1.5 | 1.32 | 1.34 | 1.21 |
| BEN | 1.06 | 1.13 | 1.12 | 0.758 | 0.353 | 1.07 | 1.17 | 1.15 | 0.916 | 0.677 | 0.674 | 0.96 | 0.686 | 0.342 | 0.201 | 0.84 | 0.685 | 0.563 | – | 0.58 |
| CAL-12T | 1.05 | 1.29 | 1.38 | 0.624 | 0.142 | 0.353 | 0.315 | 0.28 | 0.294 | 0.215 | 1.2 | 1.06 | 1.31 | 0.938 | 0.197 | 0.705 | 0.613 | 0.655 | 0.576 | 0.518 |
| COR-L23 | 0.827 | 0.948 | 1.08 | 0.144 | 0.16 | 0.611 | 0.565 | 0.376 | 0.103 | 0.168 | 0.959 | 1.03 | 1.16 | 0.412 | 0.146 | 0.798 | 0.916 | 1.16 | 0.825 | 0.944 |
| COR-L 105 | 1.15 | 0.952 | 0.89 | 0.562 | 0.35 | 0.466 | 0.424 | 0.426 | 0.363 | 0.377 | 1.46 | 1.01 | 1.03 | 0.468 | 0.345 | 0.452 | 0.35 | 0.357 | 0.325 | 0.296 |
| Calu-6 | 1.04 | 0.901 | 0.551 | 0.134 | 0.145 | – | – | – | – | – | 0.981 | 0.887 | 0.854 | 0.39 | 0.125 | 0.98 | 0.949 | 1.18 | 0.985 | 0.947 |
| ChaGo-K-1 | – | – | – | – | – | 0.903 | 0.999 | 1.06 | 0.992 | 0.895 | 0.909 | 0.867 | 0.993 | 0.926 | 0.629 | – | – | – | – | – |
| EBC-1 | 0.77 | 0.861 | 0.931 | 0.244 | 0.274 | – | – | – | – | – | 0.111 | 0.101 | 0.109 | 0.0927 | 0.0893 | 0.259 | 0.26 | 0.248 | 0.244 | 0.2 |
| EKVX | 0.978 | 0.879 | 0.923 | 0.944 | 0.273 | 0.321 | – | 0.361 | 0.603 | 0.218 | 0.897 | 0.85 | 1.05 | 0.604 | 0.275 | 0.212 | 0.262 | 0.231 | 0.23 | 0.161 |
| EMC-BAC-2 | 0.815 | 0.752 | 0.917 | 0.548 | 0.526 | 0.846 | 0.966 | 0.965 | 0.624 | 0.312 | 1.03 | 0.621 | 0.997 | 0.818 | 0.39 | 0.914 | 0.893 | 0.806 | 0.686 | 0.694 |
| EPLC-272H | 0.989 | 1.12 | 1.01 | 0.529 | 0.972 | 0.302 | 0.277 | 0.306 | 0.225 | 0.206 | 0.793 | 0.657 | 0.659 | 0.322 | 0.23 | 0.977 | 0.948 | 0.999 | – | 0.736 |
| H3255 | 0.677 | 0.8 | 0.736 | 0.492 | 0.33 | 0.621 | 0.711 | 0.622 | 0.448 | 0.328 | 0.932 | 0.869 | 0.995 | 0.508 | 0.158 | 0.247 | 0.284 | 0.19 | 0.245 | 0.206 |
